In PMC3990705, “A p38 Substrate-Specific MK2-EGFP Translocation Assay for Identification and Validation of New p38 Inhibitors in Living Cells: A Comprising Alternative for Acquisition of Cellular p38 Inhibition Data” (PLoS ONE, 2014):
Where two headings read alike, the source gives them in different places.

Tests used:
p38 MAPK = molecular target: T1, p38 MAPK (Homo sapiens, UniProt Q16539); assay: MK2-EGFP translocation assay (High Content Analysis); assay type: cell-based; details: for nuc/cyt ratio at 15 nM ± SD: 15 nM compound, activated U2OS MK2-EGFP cells, N = 3; for potency towards p38 inhibition in the translocation screen: 1.5 µM, 150 nM, 15 nM, normalized to Skepinone-L
T1 construct: endogenous in cells; host or cells: U2OS-MK2-EGFP-clone-RA#2
T1 sequence (Q16539 whole entry): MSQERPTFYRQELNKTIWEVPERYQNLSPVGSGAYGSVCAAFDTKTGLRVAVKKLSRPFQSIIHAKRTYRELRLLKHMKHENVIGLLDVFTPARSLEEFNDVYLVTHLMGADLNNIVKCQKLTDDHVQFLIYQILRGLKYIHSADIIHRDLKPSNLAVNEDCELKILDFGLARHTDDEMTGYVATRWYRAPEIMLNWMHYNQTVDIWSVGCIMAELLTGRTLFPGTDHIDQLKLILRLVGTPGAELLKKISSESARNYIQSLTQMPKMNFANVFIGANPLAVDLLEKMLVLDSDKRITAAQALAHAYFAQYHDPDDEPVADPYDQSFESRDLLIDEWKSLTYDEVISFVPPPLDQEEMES
Protocol: Screening was performed in biological duplicates on different days and different cell line passages. For cellular screening ∼ 12.500 cells were seeded into 96-well clear tissue-culture micro-plates (Bio-One µClear, Greiner, Germany) and grown until 90% confluence. The Rac/p38 MAPK pathway was activated by exchanging normal growth media with hyperosmotic media. […] Plates were mixed thoroughly and incubated at 37°C and 5% CO2 in a humidified chamber atmosphere. After 80–90 minutes the treatment was stopped by disposing the media. Subsequently cell were fixed using 3% PFA/PBS in 1x PBS at pH 7.4 for 15 minutes and washed with PBS and PBST (0.05% Tween-20) following nuclear DNA staining using 150 ng/mL DAPI in 1xPBS/35 µg/mL RNAseA. Finally, plates were transferred in an automated cytomat incubator (Thermo Scientific, Germany) combined with a robotic plate handling device (PAA, UK) and subjected to automated image acquisition.
Images of EGFP and DAPI fluorescent cells were acquired using an Image Xpress micro XL microscope (Molecular Devices, Germany). […] On average 400 cells per well were imaged, allowing reliable statistical measures and quantification.
Automated image analysis was carried out using the MetaXpress software (Molecular Devices, Germany). Fluorescence intensity ratios were calculated using the average of the cellular MK2-EGFP fluorescence intensity (Cell: nuclear inner/outer mean intensity) of all images/sites per well. p38 activation was defined as positive when the nucleocytoplasmic MK2-fluorescence intensity ratio was below 0.7. For further analysis, the average of the mean of the entire plate was calculated and used for internal plate normalization. For quality assessment of the screening the Log-Z-score was determined. Obtained values were calculated on the normalized nucleocytoplasmic MK2-fluorescence intensity ratio (average of the mean) of respective data-points.
Image analysis and result calculations were performed as described.

p38α MAPK = p38α MAPK (Homo sapiens, UniProt Q16539); assay: Biochemical p38 MAPK activity assay (BAA), ELISA of ATF-2 phosphorylation
Sequence of p38α MAPK (Q16539 whole entry): as above
Protocol: Kinase activity assays were used for identification of p38α MAPK and JNK3 inhibitors. The experimental settings and screening procedures are previously described by Goettert et al., [28].
Briefly, the ELISA assay was performed using 96-well plates (MaxiSorp, NUNC, Germany) by measuring the activity of p38α MAPK after incubation with a candidate inhibitor. Therefore, the phosphorylation degree of activation transcription factor 2 (ATF-2) is detected by a monoclonal peroxidase conjugated antibody in a dilution of 1∶5000 (Sigma-Aldrich, Germany). This monoclonal anti-phospho-ATF-2 (Thr69/71) peroxidase-conjugated antibody reacts specifically with dually phosphorylated ATF-2, detecting neither the mono- nor the unphosphorylated kinase substrate. ATF- 2 is a natural substrate of the p38 MAPKs and JNK3, and its phosphorylation is inversely correlated with the inhibitor potency.

[1] = test system: TNFα release in human whole blood; assay: Whole blood assay (WBA), TNFα release after LPS stimulation; assay type: cell-based; details: N = 3, read-out: WBA TNFα IC50 ± SD
Protocol: For determination of inhibitor potency of the compounds by detection of TNFα release in human whole blood an in vitro assay using human whole blood stimulated with LPS for TNFα synthesis is a reliable test system for inhibitors of cytokine synthesis, especially for p38 MAP kinase inhibitors as TNFα synthesis is mainly mediated by p38 MAP kinase. Therefore, the synthesis and release of proinflammatory cytokines in human whole blood from a healthy donor is stimulated using a LPS solution (1 µg/mL, Sigma-Aldrich, Germany) after preincubation of inhibitor dilution (as described in [26]). After 2.5 hours of incubation in a 5% CO2 incubator, the stimulation is stopped and plasma is obtained by centrifugation of the whole blood, followed by TNFα readout from the plasma using a commercially available TNFα ELISA kit (R&D Systems, Germany). The blood sample was obtained with the written informed consent of the donor to participate in this study. The ethics committee (Ethik-Kommission der Medizinischen Fakultät und am Universitätsklinikum Tuebingen) state that an ethical statement is not mandatory when the researchers use their own blood/plasma for experiments. The german statutes and the Declaration of Helsinki are not aimed at experiments using samples provided by the principal investigator him or herself. In the opinion of the committee, the Declaration of Helsinki is designed to protect the patient’s interests and to avoid abuse of the patient’s material.

U2OS MK2-EGFP cells = assay: Cellular viability assay (AlamarBlue); assay type: cell-based, human; details: 24 h, 15 nM–15 µM
Protocol: The cellular viability assay was performed according to standard procedures (for details see AlamarBlue manual #DAL1100, Life Technologies, Germany). Briefly, ∼ 15.000 cells of the U2OS MK2-EGFP clone-RA#2 cell line were plated in 96 well µclear plate and grown in growth media until sub-confluency. Subsequently, cells were treated with compounds in indicated concentrations for 24 h at 37°C in a humidified chamber containing 5% CO2. After compound treatment the amount of living cells was monitored microscopically and cell-viability was determined using the AlamarBlue assay. For this purpose, resazurin was added freshly to the growth media devoid of phenol red as described. The media premixed with the resazurin substrate was pre-warmed to 37°C and 200 µL were added to the pre-treated cells in the 96-well plate. Following incubation at 37°C, 5% CO2 for 4 h the fluorescence of the media was measured in a PHERAstar photometer (BMG Labtech, USA) with the filter sets: Ex: 540nm/Em: 580nm.

JNK = test system: JNK; set-up: method as in PMID 11717429; details: cited from earlier work
JNK3 = assay: Phospho-Ser63-c-Jun/JNK assay in U2OS MK2-EGFP cells; assay type: cell-based, human; details: phospho-c-Jun Ser-63 endpoint, multiplexed with MK2-EGFP assay
[2] = inhibition of phosphorylation of ATF2, N = 3, read-out: BAA p38 IC50 ± SD

Row | Structure (SMILES) | nuc/cyt ratio at 15 nM ± SD (p38 MAPK) | IC50 (p38α MAPK; read-out: BAA p38 IC50 ± SD) [nM] | IC50 [1] [nM] | further results
1 | O=C(Nc1cc(Nc2ccc3c(c2)CCc2ccc(OCCN4CCOCC4)cc2C3=O)c(F)cc1F)c1ccsc1 [LN1637] | 1,206±0,0326 | – | 6 | IC50 (p38α MAPK; [2]): 0.5 nM; IC50 (p38α MAPK; summary of Table 1, read-out: BAA, IC50): 5 nM
2 | O=C1c2ccc(Nc3ccc(F)cc3F)cc2CCc2ccc(OC[C@H](O)CO)cc21 [Skepinone-L, reference compound] | – | – | 59 | cytotoxic effects / cellular viability (U2OS MK2-EGFP cells): do not affect cellular viability; cellular effectiveness in log-dilution experiments (p38 MAPK; 0 µM –100 µM, living cells): inhibits p38 from 10 nM –1 µM in living cells; potency towards p38 inhibition in the translocation screen (p38 MAPK): outstanding potency; effect on nuclear export of MK2-EGFP (p38 MAPK; 10 µM compound): abolishes nuclear export of MK2-EGFP
3 | O=C(Nc1cc(Nc2ccc3c(c2)CCc2ccc(OCCN4CCOCC4)cc2C3=O)ccc1F)c1ccoc1 [LN1311] | 1,088±0,0781 | 1.1 | 106 | –
4 | CNC(=O)c1ccc2c(c1)C(=O)c1ccc(Nc3ccc(F)cc3F)cc1CC2 [LN1496] | 1,088±0,0231 | 3.2 | 37 | –
5 | Oc1c2ccccc2c2c3c(cccc13)N=N2 [SP600125] | – | – | – | selectivity over p38 (JNK): 300 fold; inhibition of p38 and JNK3 (selectivity) (JNK3): Selective inhibition of JNK3 activity
6 | O=C(Nc1cc(Nc2ccc3c(c2)CCc2ccc(OCCN4CCOCC4)cc2C3=O)c(F)cc1F)c1ccccc1 [LN1503] | 1,057±0,0332 | 1.3 | 221 | –
7 | O=C(NCC(O)CO)c1ccc2c(c1)C(=O)c1ccc(Nc3cc(NC(=O)c4ccsc4)c(F)cc3F)cc1CC2 (stereo not shown) [LN1878] | 1,211±0,1416 | 1.9 | – | –

Second part, led by results:

Row | nuc/cyt ratio at 15 nM ± SD (p38 MAPK) | IC50 (p38α MAPK; read-out: BAA p38 IC50 ± SD) [nM] | IC50 [1] [nM] | Structure (SMILES) | further results
8 | 1,288±0,2483 | 3.7 | – | CC(C)Sc1nc(-c2ccc(F)cc2)c(-c2ccnc(NC3CCOCC3)c2)[nH]1 [RN4296] | potency towards p38 inhibition in the translocation screen (p38 MAPK): most potent compound towards p38 inhibition
9 | 1,064±0,1062 | 10.1 | 47 | Nc1ccccc1Nc1ccc2c(c1)CCc1ccc(OC[C@H](O)CO)cc1C2=O [LN809] | –
10 | 1,111±0,0012 | 11.7 | 173 | CC(C)C(C)Nc1cc(-c2[nH]c(SCCCO)nc2-c2ccc(F)cc2)ccn1 (stereo not shown) [LN949] | –
11 | 1,068±0,0406 | 5.7 | 182 | CC(C)Nc1cc(-c2[nH]c(SC[C@H](O)CO)nc2-c2ccc(F)cc2)ccn1 [LN954] | –
12 | 1,158±0,0756 | – | 129 | CC(C)Nc1cc(-c2[nH]c(SCCO)nc2-c2ccc(F)cc2)ccn1 [LN957] | IC50 (p38α MAPK; [2]): 3 nM
